Experimental findings from ChEMBL document CHEMBL5380793, “Structure-Activity Relationship of Novel Pyrimidine Derivatives with Potent Inhibitory Activities against Mycobacterium tuberculosis” (J Med Chem, 2023) are described below.

The MIC is the smallest concentration in the dilution series that meets the test's criterion for growth inhibition. As a reminder, the IC50 is the concentration at which inhibition is half-maximal.

The test system of series [1] is Mycobacterium tuberculosis. The series can be described thus: Antitubercular activity against marker free autoluminescent Mycobacterium tuberculosis H37Ra assessed as reduction in relative light unit measured once a day for 6 days. It counts as functional. As to conditions: 144 h, time 6 day.
Series [2] can be described thus: Cytotoxicity against human HepG2 cells assessed as inhibition of cell growth incubated for 48 hrs by MTT assay. It counts as toxicity, cell-based. On the technique in general: Tetrazolium assays rely on reduction of a dye to a coloured formazan, in cell work by metabolically active cells.

In brackets after ≈: the same amount, converted by molar mass.

Regarding `Clc1cnc(-c2ccccc2)nc1Nc1ccc(N2CCNCC2)cc1OCC1CCCCC1`, the MIC in series [1] worked out at 2 µg/mL (≈ 4.18 µM). For the same compound, in series [2], the IC50 at 48 h came to 2900 nM.
The matching figures for `Cc1cc(Nc2nc(Cl)ncc2Cl)c(OC(C)C)cc1C1CCNCC1`: 16 µg/mL (≈ 40.5 µM) and 16000 nM.
In the case of `Cc1cc(Nc2nc(-c3cccnc3)ncc2Cl)c(OC(C)C)cc1C1CCNCC1`, the minimum inhibitory concentration (MIC) in series [1] worked out at 2 µg/mL (≈ 4.57 µM). The IC50 at 48 h in series [2] came out at 1700 nM.
For `Cc1cc(Nc2nc(C3CC3)ncc2Cl)c(OC(C)C)cc1C1CCNCC1`, the MIC in series [1] worked out at 2 µg/mL (≈ 4.99 µM). Moreover, in series [2], the IC50 at 48 h turned out to be 2000 nM.
In the case of `COc1cccc(Nc2ncc(Cl)c(Nc3cc(C)c(C4CCNCC4)cc3OC(C)C)n2)c1`, the MIC in series [1] came to 1 µg/mL (≈ 2.07 µM). Besides, the IC50 at 48 h in series [2] is 1300 nM.
The matching figures for `CC(C)Oc1cc(N2CCNCC2)ccc1Nc1nc(-c2ccccc2)ncc1Cl`: 1 µg/mL (≈ 2.36 µM) and 2900 nM.
Regarding `CNC(=O)c1ccc(-c2ncc(Cl)c(Nc3cc(C)c(C4CCNCC4)cc3OC(C)C)n2)cc1`, the MIC in series [1] was 2 µg/mL (≈ 4.05 µM). For the same compound, the IC50 at 48 h in series [2] amounted to 2000 nM.
For `Cc1cc(Nc2nc(Nc3cccc(C(F)(F)F)c3)ncc2Cl)c(OC(C)C)cc1C1CCNCC1`, in that order: 1 µg/mL (≈ 1.92 µM) and 1100 nM.
`CCc1ncc(Cl)c(Nc2cc(C)c(C3CCNCC3)cc2OC(C)C)n1`: in series [1], the MIC stood at 8 µg/mL (≈ 20.6 µM). In series [2], the IC50 at 48 h was determined as 8000 nM.
As to `Cc1cc(Nc2cc(-c3ccccc3)nc3ncnn23)c(OC(C)C)cc1C1CCNCC1`, the MIC in series [1] was 4 µg/mL (≈ 9.04 µM). Further, the half-inhibitory concentration (IC50) at 48 h in series [2] is 4400 nM.
The matching figures for `Cc1cc(Nc2nc(-c3cnc4ccccc4c3)ncc2Cl)c(OC(C)C)cc1C1CCNCC1`: 1 µg/mL (≈ 2.05 µM) and 1000 nM.
For `Cc1cc(NC(=S)Nc2ccc(F)cc2)c(OC(C)C)cc1C1CCNCC1`, in that order: greater than 64 µg/mL and greater than 20000 nM.
On to `CCCOc1cc(N2CCNCC2)ccc1Nc1nc(-c2ccccc2)ncc1Cl`, for which the MIC in series [1] came out at 1 µg/mL (≈ 2.36 µM). The IC50 at 48 h in series [2] was 2100 nM.
As for `Cc1cc(Nc2nc(-c3ccncc3)ncc2Cl)c(OC(C)C)cc1C1CCNCC1`, in series [1], the minimal inhibitory concentration (MIC) was found to be 2 µg/mL (≈ 4.57 µM). Besides, the IC50 at 48 h in series [2] is 2000 nM.
For the compound `Cc1cc(Nc2nc(-c3ccc4c(c3)OCO4)ncc2Cl)c(OC(C)C)cc1C1CCNCC1`, in series [1], the MIC amounted to 1 µg/mL (≈ 2.08 µM). For the same compound, the IC50 at 48 h in series [2] was determined as 1000 nM.
The matching figures for `Clc1cnc(-c2ccccc2)nc1Nc1ccc(N2CCNCC2)cc1`: 8 µg/mL (≈ 21.9 µM) and 3300 nM.
In the case of `Cc1cc(Nc2nc(Nc3ccc(Cl)cc3Cl)ncc2Cl)c(OC(C)C)cc1C1CCNCC1`, the MIC in series [1] turned out to be 2 µg/mL (≈ 3.84 µM). In addition, the IC50 at 48 h in series [2] was 2500 nM.
For `Cc1cc(Nc2nc(-c3ccc(C(C)C)cc3)ncc2Cl)c(OC(C)C)cc1C1CCNCC1`, the minimal inhibitory concentration (MIC) in series [1] was 1 µg/mL (≈ 2.09 µM). For the same compound, the IC50 at 48 h in series [2] was 2200 nM.
As to `CCCc1ccc(-c2ncc(Cl)c(Nc3cc(C)c(C4CCNCC4)cc3OC(C)C)n2)cc1`, the MIC in series [1] amounted to 1 µg/mL (≈ 2.09 µM). In series [2], the IC50 at 48 h turned out to be 2200 nM.
The matching figures for `Clc1cnc(-c2ccccc2)nc1Nc1ccc(N2CCNCC2)cc1OC1CCCC1`: 1 µg/mL (≈ 2.22 µM) and 2700 nM.
In the case of `Cc1cc(Nc2nc(-c3ccccc3CO)ncc2Cl)c(OC(C)C)cc1C1CCNCC1`, the MIC in series [1] was determined as 4 µg/mL (≈ 8.57 µM). In series [2], the IC50 at 48 h was found to be 2000 nM.
On to `COc1ccccc1Nc1ncc(Cl)c(Nc2cc(C)c(C3CCNCC3)cc2OC(C)C)n1`, for which the MIC in series [1] amounted to 2 µg/mL (≈ 4.15 µM). Moreover, the IC50 at 48 h in series [2] was determined as 2000 nM.
For `Cc1cc(Nc2nc(-c3ccc4c(c3)OCCO4)ncc2Cl)c(OC(C)C)cc1C1CCNCC1`, in that order: 1 µg/mL (≈ 2.02 µM) and 1000 nM.
In the case of `CC(C)COc1cc(N2CCNCC2)ccc1Nc1nc(-c2ccccc2)ncc1Cl`, the MIC in series [1] was 1 µg/mL (≈ 2.28 µM). Moreover, the IC50 at 48 h in series [2] was 2600 nM.
For `Cc1ccc(-c2ncc(Cl)c(Nc3cc(C)c(C4CCNCC4)cc3OC(C)C)n2)cc1`, the MIC in series [1] was determined as 1 µg/mL (≈ 2.22 µM). The IC50 at 48 h in series [2] amounted to 2500 nM.
The matching figures for `Cc1cc(Nc2ccnc(-c3ccccc3)n2)c(OC(C)C)cc1C1CCNCC1`: 4 µg/mL (≈ 9.94 µM) and 1900 nM.
